Results reported in PubChem BioAssay AID1919001 (Molecular Pharmacology Branch, DTP, NCI, 2023).
One block for each molecule: values may come before it.

System: 699152-130-R-J1-PDC complex spheroid growth
Test: Anticancer human tumor 699152-130-R-J1-PDC patient-derived pancreatic carcinoma cell line growth inhibition [AhR]
Settings: for IC50: curve of first compound; for viability, T/C: stronger effect = lower value
Method in brief: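 Spheroids combined tumor cells with HUVEC endothelial cells and human MSCs as stroma. AhR antagonists were paired with standard or investigational drugs, each dosed in half-log steps down from near clinical Cmax, or from 10 microM where Cmax was unknown.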

[1] = second compound 0.1 µM, first compound 0.0316 µM
[2] = second compound 0.1 µM, first compound 0.1 µM
[3] = second compound 0.1 µM, first compound 0.316 µM
[4] = second compound 0.1 µM, first compound 1 µM
[5] = second compound 0.1 µM, first compound 3.16 µM
[6] = second compound 0.1 µM, first compound 10 µM
[7] = second compound 0.316 µM, first compound 0.0316 µM
[8] = second compound 0.316 µM, first compound 0.1 µM
[9] = second compound 0.316 µM, first compound 0.316 µM
[10] = second compound 0.316 µM, first compound 1 µM
[11] = second compound 0.316 µM, first compound 3.16 µM
[12] = second compound 0.316 µM, first compound 10 µM
[13] = second compound 1 µM, first compound 0.0316 µM
[14] = second compound 1 µM, first compound 0.1 µM
[15] = second compound 1 µM, first compound 0.316 µM
[16] = second compound 1 µM, first compound 1 µM
[17] = second compound 1 µM, first compound 3.16 µM
[18] = second compound 1 µM, first compound 10 µM
[19] = second compound 3.16 µM, first compound 0.0316 µM
[20] = second compound 3.16 µM, first compound 0.1 µM
[21] = second compound 3.16 µM, first compound 0.316 µM
[22] = second compound 3.16 µM, first compound 1 µM
[23] = second compound 3.16 µM, first compound 3.16 µM
[24] = second compound 3.16 µM, first compound 10 µM
[25] = second compound 10 µM, first compound 0.0316 µM
[26] = second compound 10 µM, first compound 0.1 µM
[27] = second compound 10 µM, first compound 0.316 µM
[28] = second compound 10 µM, first compound 1 µM
[29] = second compound 10 µM, first compound 3.16 µM
[30] = second compound 10 µM, first compound 10 µM
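Further: compound exposure lasted 7 days after spheroids had grown for 3 days.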

SMILES: CC(C)c1c(-c2ccccc2)nc2c(C#N)c[nH]n2c1=O + Cc1ccccc1N=Nc1ccc(NC(=O)c2ccnn2C)c(C)c1
IC50 (second compound 0.1 µM): > 10 µM
IC50 (second compound 0.316 µM): > 10 µM
IC50 (second compound 1 µM): > 10 µM
IC50 (second compound 3.16 µM): > 10 µM
IC50 (second compound 10 µM): > 10 µM
viability, T/C [1]: 104%
viability, T/C [2]: 81.7%
viability, T/C [3]: 89.5%
viability, T/C [4]: 86.4%
viability, T/C [5]: 79.6%
viability, T/C [6]: 92.1%
viability, T/C [7]: 94.6%
viability, T/C [8]: 86.2%
viability, T/C [9]: 82.6%
viability, T/C [10]: 82.5%
viability, T/C [11]: 84.6%
viability, T/C [12]: 84.6%
viability, T/C [13]: 83.3%
viability, T/C [14]: 93%
viability, T/C [15]: 87.7%
viability, T/C [16]: 99.1%
viability, T/C [17]: 86.7%
viability, T/C [18]: 90.8%
viability, T/C [19]: 96%
viability, T/C [20]: 102%
viability, T/C [21]: 103%
viability, T/C [22]: 82.5%
viability, T/C [23]: 98.8%
viability, T/C [24]: 93.5%
viability, T/C [25]: 99.7%
viability, T/C [26]: 96.6%
viability, T/C [27]: 103%
viability, T/C [28]: 102%
viability, T/C [29]: 106%
viability, T/C [30]: 103%

SMILES: CC1COCCN1c1cc(C2(S(C)(=N)=O)CC2)nc(-c2ccnc3[nH]ccc23)n1 (stereo not given) + Cc1ccccc1N=Nc1ccc(NC(=O)c2ccnn2C)c(C)c1
IC50 (second compound 0.1 µM): > 10 µM
IC50 (second compound 0.316 µM): > 10 µM
IC50 (second compound 1 µM): > 10 µM
IC50 (second compound 3.16 µM): > 10 µM
IC50 (second compound 10 µM): > 10 µM
viability, T/C [1]: 109%
viability, T/C [2]: 109%
viability, T/C [3]: 86.1%
viability, T/C [4]: 88.9%
viability, T/C [5]: 88.4%
viability, T/C [6]: 73.7%
viability, T/C [7]: 92%
viability, T/C [8]: 98%
viability, T/C [9]: 98.4%
viability, T/C [10]: 101%
viability, T/C [11]: 84.9%
viability, T/C [12]: 65.8%
viability, T/C [13]: 90.5%
viability, T/C [14]: 101%
viability, T/C [15]: 99.5%
viability, T/C [16]: 95.9%
viability, T/C [17]: 84.8%
viability, T/C [18]: 65.3%
viability, T/C [19]: 105%
viability, T/C [20]: 97%
viability, T/C [21]: 97.9%
viability, T/C [22]: 99%
viability, T/C [23]: 79.2%
viability, T/C [24]: 69.8%
viability, T/C [25]: 111%
viability, T/C [26]: 125%
viability, T/C [27]: 112%
viability, T/C [28]: 104%
viability, T/C [29]: 94.8%
viability, T/C [30]: 80.6%

SMILES: O=C(C=Cn1cnc(-c2cc(C(F)(F)F)cc(C(F)(F)F)c2)n1)NNc1cnccn1 + Cc1ccccc1N=Nc1ccc(NC(=O)c2ccnn2C)c(C)c1
IC50 (second compound 0.1 µM): > 3 µM
IC50 (second compound 0.316 µM): > 3 µM
IC50 (second compound 1 µM): > 3 µM
IC50 (second compound 3.16 µM): > 3 µM
IC50 (second compound 10 µM): > 3 µM
viability, T/C (second compound 0.1 µM, first compound 0.00949 µM): 92.5%
viability, T/C (second compound 0.1 µM, first compound 0.03 µM): 84.5%
viability, T/C (second compound 0.1 µM, first compound 0.0949 µM): 87.8%
viability, T/C (second compound 0.1 µM, first compound 0.3 µM): 75.1%
viability, T/C (second compound 0.1 µM, first compound 0.949 µM): 78.1%
viability, T/C (second compound 0.1 µM, first compound 3 µM): 57.5%
viability, T/C (second compound 0.316 µM, first compound 0.00949 µM): 85.5%
viability, T/C (second compound 0.316 µM, first compound 0.03 µM): 82%
viability, T/C (second compound 0.316 µM, first compound 0.0949 µM): 82.7%
viability, T/C (second compound 0.316 µM, first compound 0.3 µM): 79.3%
viability, T/C (second compound 0.316 µM, first compound 0.949 µM): 69.1%
viability, T/C (second compound 0.316 µM, first compound 3 µM): 58%
viability, T/C (second compound 1 µM, first compound 0.00949 µM): 92%
viability, T/C (second compound 1 µM, first compound 0.03 µM): 90.8%
viability, T/C (second compound 1 µM, first compound 0.0949 µM): 93.2%
viability, T/C (second compound 1 µM, first compound 0.3 µM): 78.7%
viability, T/C (second compound 1 µM, first compound 0.949 µM): 74.2%
viability, T/C (second compound 1 µM, first compound 3 µM): 61.6%
viability, T/C (second compound 3.16 µM, first compound 0.00949 µM): 97.6%
viability, T/C (second compound 3.16 µM, first compound 0.03 µM): 115%
viability, T/C (second compound 3.16 µM, first compound 0.0949 µM): 98.6%
viability, T/C (second compound 3.16 µM, first compound 0.3 µM): 69.6%
viability, T/C (second compound 3.16 µM, first compound 0.949 µM): 76.4%
viability, T/C (second compound 3.16 µM, first compound 3 µM): 66.6%
viability, T/C (second compound 10 µM, first compound 0.00949 µM): 120%
viability, T/C (second compound 10 µM, first compound 0.03 µM): 112%
viability, T/C (second compound 10 µM, first compound 0.0949 µM): 91.7%
viability, T/C (second compound 10 µM, first compound 0.3 µM): 77.5%
viability, T/C (second compound 10 µM, first compound 0.949 µM): 69.9%
viability, T/C (second compound 10 µM, first compound 3 µM): 69.7%

Continued, in another order:

IC50 (second compound 0.1 µM): > 1 µM
IC50 (second compound 0.316 µM): > 1 µM
IC50 (second compound 1 µM): > 1 µM
IC50 (second compound 3.16 µM): > 1 µM
IC50 (second compound 10 µM): > 1 µM
SMILES: CC1COCCN1c1cc(-c2ccnn2C)c2ccnc(-c3ccn[nH]3)c2n1 (stereo not given) + Cc1ccccc1N=Nc1ccc(NC(=O)c2ccnn2C)c(C)c1
viability, T/C (second compound 0.1 µM, first compound 0.00316 µM): 105%
viability, T/C (second compound 0.1 µM, first compound 0.01 µM): 100%
viability, T/C [1]: 94.6%
viability, T/C [2]: 84.1%
viability, T/C [3]: 83.3%
viability, T/C [4]: 62.6%
viability, T/C (second compound 0.316 µM, first compound 0.00316 µM): 87.8%
viability, T/C (second compound 0.316 µM, first compound 0.01 µM): 96.9%
viability, T/C [7]: 101%
viability, T/C [8]: 82.7%
viability, T/C [9]: 68.3%
viability, T/C [10]: 61.9%
viability, T/C (second compound 1 µM, first compound 0.00316 µM): 99.8%
viability, T/C (second compound 1 µM, first compound 0.01 µM): 110%
viability, T/C [13]: 101%
viability, T/C [14]: 93.5%
viability, T/C [15]: 79.5%
viability, T/C [16]: 66.9%
viability, T/C (second compound 3.16 µM, first compound 0.00316 µM): 105%
viability, T/C (second compound 3.16 µM, first compound 0.01 µM): 110%
viability, T/C [19]: 101%
viability, T/C [20]: 89.3%
viability, T/C [21]: 72.1%
viability, T/C [22]: 60.1%
viability, T/C (second compound 10 µM, first compound 0.00316 µM): 119%
viability, T/C (second compound 10 µM, first compound 0.01 µM): 128%
viability, T/C [25]: 103%
viability, T/C [26]: 116%
viability, T/C [27]: 80.8%
viability, T/C [28]: 65.9%

IC50 (second compound 0.1 µM): 4.78 µM
IC50 (second compound 0.316 µM): 4.07 µM
IC50 (second compound 1 µM): 5.29 µM
IC50 (second compound 3.16 µM): 5.32 µM
IC50 (second compound 10 µM): 4.79 µM
SMILES: COc1ccc([C@@H](O)c2cc(-c3ncnc4cc(N5CCOCC5)ccc34)c(F)cc2Cl)nn1 + Cc1ccccc1N=Nc1ccc(NC(=O)c2ccnn2C)c(C)c1
viability, T/C [1]: 93.5%
viability, T/C [2]: 108%
viability, T/C [3]: 90%
viability, T/C [4]: 81.4%
viability, T/C [5]: 61.7%
viability, T/C [6]: 30.5%
viability, T/C [7]: 83.7%
viability, T/C [8]: 91.8%
viability, T/C [9]: 97.5%
viability, T/C [10]: 80%
viability, T/C [11]: 55.6%
viability, T/C [12]: 32.3%
viability, T/C [13]: 96.8%
viability, T/C [14]: 91.8%
viability, T/C [15]: 87.2%
viability, T/C [16]: 79.5%
viability, T/C [17]: 61.1%
viability, T/C [18]: 35.6%
viability, T/C [19]: 93.8%
viability, T/C [20]: 98.4%
viability, T/C [21]: 90%
viability, T/C [22]: 86.5%
viability, T/C [23]: 61.9%
viability, T/C [24]: 35.3%
viability, T/C [25]: 107%
viability, T/C [26]: 111%
viability, T/C [27]: 110%
viability, T/C [28]: 94.5%
viability, T/C [29]: 61%
viability, T/C [30]: 31.1%
